Each molecule was assayed against GLP-1 Receptor (Homo sapiens, UniProt P43220) (assay: GLP-1R agonist cAMP stimulation assay (HEK293/GLP1R/CRE-LUC cells, cAMP dynamic 2 Kit)). Conditions: HEK293/CRE-Luc cell line stably expressing the GLP-1 Receptor, 30 min at 37° C.
Format: cell-based
Outline: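 cAMP measured by HTRF competition (d2-labelled cAMP with cryptate antibody, 1 h, room temperature, protected from light). Before that, GLP1R/CRE-Luc HEK293 cells (1000/well) were exposed for 30 min at 37 °C to half-log compound dilutions in DPBS containing IBMX 0.5 mM and BSA 0.1%.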

Sequence of GLP-1 Receptor (P43220 24-463, species assumed): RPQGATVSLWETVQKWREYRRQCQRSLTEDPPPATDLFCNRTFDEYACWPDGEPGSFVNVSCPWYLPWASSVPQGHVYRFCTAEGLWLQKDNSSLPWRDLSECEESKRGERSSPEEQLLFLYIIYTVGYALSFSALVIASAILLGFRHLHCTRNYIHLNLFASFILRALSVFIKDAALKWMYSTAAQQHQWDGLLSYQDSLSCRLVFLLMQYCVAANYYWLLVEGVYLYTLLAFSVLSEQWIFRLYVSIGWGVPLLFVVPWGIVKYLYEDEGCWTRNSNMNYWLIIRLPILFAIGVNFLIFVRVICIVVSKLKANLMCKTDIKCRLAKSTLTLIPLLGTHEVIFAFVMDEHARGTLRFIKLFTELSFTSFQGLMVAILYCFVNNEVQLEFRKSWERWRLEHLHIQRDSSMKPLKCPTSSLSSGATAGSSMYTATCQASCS

| EC50 [nM] | SMILES |
| --- | --- |
| 4.5 | O=c1[nH]c(-c2cnc3c(c2)nc(CN2CCC(c4cccc5c4OC[C@@H](c4ccc(Cl)cc4)O5)CC2)n3C[C@@H]2CCO2)no1 [Compound 407a, 3-[2-({4-[(2R)-2-(4-chlorophenyl)-2,3-dihydro-1,4-benzodioxin-5-yl]piperidin-1-yl}methyl)-3-{[(2S)-oxetan-2-yl]methyl}-3H-imidazo[4,5-b]pyridin-6-yl]-4,5-dihydro-1,2,4-oxadiazol-5-one] |
| 12 | CC1OC2(C(=O)Nc3ccc4c(c3)nc(CN3CCC(c5cccc(OCc6ccc(Cl)cc6F)n5)CC3)n4C[C@@H]3CCO3)CCC1CC2 (stereo partly drawn) [Compound 198a, N-{2-[(4-{6-[(4-chloro-2-fluorophenyl)methoxy]pyridin-2-yl}piperidin-1-yl)methyl]-1-{[(2S)-oxetan-2-yl]methyl}-1H-1,3-benzodiazol-5-yl}-3-methyl-2-oxabicyclo[2.2.2]octane-1-carboxamide] |
| 0.42 | Fc1cc(Cl)ccc1COc1nccc(C2CCN(Cc3nc4cc(-c5nnc(C(F)(F)F)[nH]5)nnc4n3C[C@@H]3CCO3)CC2)n1 [Compound 508a, 2-[(4-chloro-2-fluorophenyl)methoxy]-4-{1-[(7-{[(2S)-oxetan-2-yl]methyl}-3-[5-(trifluoromethyl)-4H-1,2,4-triazol-3-yl]-7H-imidazo[4,5-c]pyridazin-6-yl)methyl]piperidin-4-yl}pyrimidine] |
| 0.88 | COCCn1c(CN2CCC(c3cccc4c3OC(C)(c3ccc(Cl)cc3F)O4)CC2)nc2cc(-c3noc(=O)[nH]3)ccc21 (centres unmarked) [Compound 230a, 3-(2-((4-(2-(4-chloro-2-fluorophenyl)-2-methylbenzo[d][1,3]dioxol-4-yl)piperidin-1-yl)methyl)-1-(2-methoxyethyl)-1H-benzo[d]imidazol-5-yl)-1,2,4-oxadiazol-5(4H)-one] |
| 1 | O=C(Nc1ccc2c(c1)nc(CN1CCC(c3cccc(OCc4ccc(Cl)cc4F)n3)CC1)n2C[C@@H]1CCO1)C1CCCCO1 (stereo partly drawn) [Compound 155a, N-{2-[(4-{6-[(4-chloro-2-fluorophenyl)methoxy]pyridin-2-yl}piperidin-1-yl)methyl]-1-{[(2S)-oxetan-2-yl]methyl}-1H-1,3-benzodiazol-5-yl}oxane-2-carboxamide] |
| 0.175 | CC(C)C(=O)Nc1ccc2c(c1)nc(CN1CCC(c3cccc(OCc4ccc(Cl)cc4F)n3)CC1)n2C[C@@H]1CCO1 [Compound 105a, (S)—N-(2-((4-(6-((4-chloro-2-fluorobenzyl)oxy)pyridin-2-yl)piperidin-1-yl)methyl)-1-(oxetan-2-ylmethyl)-1H-benzo[d]imidazol-5-yl)isobutyramide] |
| 0.15 | O=c1[nH]c(-c2cc3nc(CN4CCC(c5ccnc(OCc6ccc(Cl)cc6F)n5)CC4)n(C[C@@H]4CCO4)c3cn2)no1 [Compound 460a, 3-{2-[(4-{2-[(4-chloro-2-fluorophenyl)methoxy]pyrimidin-4-yl}piperidin-1-yl)methyl]-3-{[(2S)-oxetan-2-yl]methyl}-3H-imidazo[4,5-c]pyridin-6-yl}-4,5-dihydro-1,2,4-oxadiazol-5-one] |
| 0.04 | CC1(c2ccc(Cl)cc2F)Oc2cccc(C3CCN(Cc4nc5cc(-c6noc(=O)[nH]6)ccc5n4C[C@@H]4CCO4)CC3)c2O1 (single isomer, unassigned) [Compound 239b] |
| 0.24 | CO[C@H](C)Cn1c(CN2CCC(c3cccc4c3O[C@@](C)(c3ccc(Cl)cn3)O4)CC2)nc2cc(-c3nnn[nH]3)ncc21 [Compound 429a, 5-chloro-2-[(2S)-4-[1-({3-[(2R)-2-methoxypropyl]-6-(1H-1,2,3,4-tetrazol-5-yl)-3H-imidazo[4,5-c]pyridin-2-yl}methyl)piperidin-4-yl]-2-methyl-2H-1,3-benzodioxol-2-yl]pyridine] |
| 5.9 | COCCOc1ccc(C(=O)Nc2ccc3c(c2)nc(CN2CCC(c4cccc(OCc5ccc(Cl)cc5F)n4)CC2)n3C[C@@H]2CCO2)cn1 [Compound 177a, N-{2-[(4-{6-[(4-chloro-2-fluorophenyl)methoxy]pyridin-2-yl}piperidin-1-yl)methyl]-1-{[(2S)-oxetan-2-yl]methyl}-1H-1,3-benzodiazol-5-yl}-6-(2-methoxyethoxy)pyridine-3-carboxamide] |
| 0.13 | CC1(c2ccc(Cl)cc2)Oc2cccc(C3CCN(Cc4nc5cc(-c6nnc(C(F)(F)F)[nH]6)ccc5n4C[C@@H]4CCO4)CC3)c2O1 (stereo partly drawn) [Compound 226a, 2-({4-[2-(4-chlorophenyl)-2-methyl-2H-1,3-benzodioxol-4-yl]piperidin-1-yl}methyl)-1-{[(2S)-oxetan-2-yl]methyl}-5-[5-(trifluoromethyl)-4H-1,2,4-triazol-3-yl]-1H-1,3-benzodiazole] |
| 2.5 | CC(C(=O)Nc1ccc2c(c1)nc(CN1CCC(c3cccc(OCc4ccc(Cl)cc4F)n3)CC1)n2C[C@@H]1CCO1)c1cnn(C)c1 (stereo partly drawn) [Compound 182a, N-{2-[(4-{6-[(4-chloro-2-fluorophenyl)methoxy]pyridin-2-yl}piperidin-1-yl)methyl]-1-{[(2S)-oxetan-2-yl]methyl}-1H-1,3-benzodiazol-5-yl}-2-(1-methyl-1H-pyrazol-4-yl)propanamide] |
| 1.8 | CNc1c(Nc2ccc3c(c2)nc(CN2CCC(c4cccc(OCc5ccc(Cl)cc5F)n4)CC2)n3C[C@@H]2CCO2)c(=O)c1=O [Compound 208a, 3-({2-[(4-{6-[(4-chloro-2-fluorophenyl)methoxy]pyridin-2-yl}piperidin-1-yl)methyl]-1-{[(2S)-oxetan-2-yl]methyl}-1H-1,3-benzodiazol-5-yl}amino)-4-(methylamino)cyclobut-3-ene-1,2-dione] |
| 0.11 | CC1(c2ccc(Cl)cc2F)Oc2cccc(C3CCN(Cc4nc5cc(-c6cn(CCS(C)(=O)=O)nn6)ccc5n4C[C@@H]4CCO4)CC3)c2O1 (stereo partly drawn) [Compound 250a, 2-({4-[2-(4-chloro-2-fluorophenyl)-2-methyl-2H-1,3-benzodioxol-4-yl]piperidin-1-yl}methyl)-5-[1-(2-methanesulfonylethyl)-1H-1,2,3-triazol-4-yl]-1-{[(2S)-oxetan-2-yl]methyl}-1H-1,3-benzodiazole] |
| 0.022 | CC1(c2ccc(Cl)cn2)Oc2cccc(C3CCN(Cc4nc5cc(-c6n[nH]c(C(F)(F)F)n6)ncc5n4C[C@@H]4CCO4)CC3)c2O1 (stereo partly drawn) [Compound 344a, 5-chloro-2-(2-methyl-4-{1-[(3-{[(2S)-oxetan-2-yl]methyl}-6-[5-(trifluoromethyl)-4H-1,2,4-triazol-3-yl]-3H-imidazo[4,5-c]pyridin-2-yl)methyl]piperidin-4-yl}-2H-1,3-benzodioxol-2-yl)pyridine] |
| 0.023 | C[C@]1(c2ccc(Cl)cc2F)Oc2cccc(C3CCN(Cc4nc5cc(-c6nnc(C7CC7)[nH]6)ncc5n4C[C@@H]4CCO4)CC3)c2O1 [Compound 281a, 4-[(2S)-2-(4-chloro-2-fluorophenyl)-2-methyl-2H-1,3-benzodioxol-4-yl]-1-{[6-(5-cyclopropyl-4H-1,2,4-triazol-3-yl)-3-{[(2S)-oxetan-2-yl]methyl}-3H-imidazo[4,5-c]pyridin-2-yl]methyl}piperidine] |
| 0.13 | Cc1nnc(-c2cc3nc(CN4CCC(c5cccc6c5OC[C@@H](c5ccc(Cl)cc5)O6)CC4)n(C[C@@H]4CCO4)c3cn2)[nH]1 [Compound 424a, 4-[(2R)-2-(4-chlorophenyl)-2,3-dihydro-1,4-benzodioxin-5-yl]-1-{[6-(5-methyl-4H-1,2,4-triazol-3-yl)-3-{[(2S)-oxetan-2-yl]methyl}-3H-imidazo[4,5-c]pyridin-2-yl]methyl}piperidine] |
| 0.27 | O=C(Nc1ccc2c(c1)nc(CN1CCC(c3cccc(OCc4ccc(Cl)cc4F)n3)CC1)n2C[C@@H]1CCO1)c1ccn2cncc2c1 [Compound 179a, N-{2-[(4-{6-[(4-chloro-2-fluorophenyl)methoxy]pyridin-2-yl}piperidin-1-yl)methyl]-1-{[(2S)-oxetan-2-yl]methyl}-1H-1,3-benzodiazol-5-yl}imidazo[1,5-a]pyridine-7-carboxamide] |
| 8.8 | Fc1cc(Cl)ccc1COc1cccc(C2CCN(Cc3nc4cc(-c5ccn(C6CCCOC6)n5)ccc4n3C[C@@H]3CCO3)CC2)n1 (stereo partly drawn) [Compound 216a, 2-[(4-{6-[(4-chloro-2-fluorophenyl)methoxy]pyridin-2-yl}piperidin-1-yl)methyl]-5-[1-(oxan-3-yl)-1H-pyrazol-3-yl]-1-{[(2S)-oxetan-2-yl]methyl}-1H-1,3-benzodiazole] |
| 0.1 | N#Cc1ccc(COc2cc(C3=CCN(Cc4nc5cc(-c6nnc(C(F)(F)F)[nH]6)ncc5n4C[C@@H]4CCO4)CC3)ccc2F)c(F)c1 [Compound 300a, 3-fluoro-4-[(2-fluoro-5-{1-[(3-{[(2S)-oxetan-2-yl]methyl}-6-[5-(trifluoromethyl)-4H-1,2,4-triazol-3-yl]-3H-imidazo[4,5-c]pyridin-2-yl)methyl]-1,2,3,6-tetrahydropyridin-4-yl}phenoxy)methyl]benzonitrile] |
| 6 | O=C(Nc1ccc2c(c1)nc(CN1CCC(c3cccc(OCc4ccc(Cl)cc4F)n3)CC1)n2C[C@@H]1CCO1)C1Cc2ccncc2C1 (stereo partly drawn) [Compound 180a, N-{2-[(4-{6-[(4-chloro-2-fluorophenyl)methoxy]pyridin-2-yl}piperidin-1-yl)methyl]-1-{[(2S)-oxetan-2-yl]methyl}-1H-1,3-benzodiazol-5-yl}-5H,6H,7H-cyclopenta[c]pyridine-6-carboxamide] |
| 0.337 | COCCC(=O)Nc1ccc2c(c1)nc(CN1CCC(c3cccc(OCc4ccc(Cl)cc4F)n3)CC1)n2C[C@@H]1CCO1 [Compound 107a, (S)—N-(2-((4-(6-((4-chloro-2-fluorobenzyl)oxy)pyridin-2-yl)piperidin-1-yl)methyl)-1-(oxetan-2-ylmethyl)-1H-benzo[d]imidazol-5-yl)-3-methoxypropanamide] |
| 0.13 | FC(F)(F)c1nnc(-c2cc3nc(CN4CCC(c5cccc6c5OC[C@@H](c5ccc(Cl)cc5)O6)CC4)n(C[C@@H]4CCO4)c3cn2)[nH]1 [Compound 423a, 4-[(2R)-2-(4-chlorophenyl)-2,3-dihydro-1,4-benzodioxin-5-yl]-1-[(3-{[(2S)-oxetan-2-yl]methyl}-6-[5-(trifluoromethyl)-4H-1,2,4-triazol-3-yl]-3H-imidazo[4,5-c]pyridin-2-yl)methyl]piperidine] |
